From PMC10659437 (bioRxiv, 2023) come the findings set out here.

Assay type in all cases: cell-based
Test [1] deals with T1, human trace amine-associated receptor 1 (hTAAR1, hTA1) (Homo sapiens, UniProt Q96RJ0).
T1 sequence (Q96RJ0 1-339): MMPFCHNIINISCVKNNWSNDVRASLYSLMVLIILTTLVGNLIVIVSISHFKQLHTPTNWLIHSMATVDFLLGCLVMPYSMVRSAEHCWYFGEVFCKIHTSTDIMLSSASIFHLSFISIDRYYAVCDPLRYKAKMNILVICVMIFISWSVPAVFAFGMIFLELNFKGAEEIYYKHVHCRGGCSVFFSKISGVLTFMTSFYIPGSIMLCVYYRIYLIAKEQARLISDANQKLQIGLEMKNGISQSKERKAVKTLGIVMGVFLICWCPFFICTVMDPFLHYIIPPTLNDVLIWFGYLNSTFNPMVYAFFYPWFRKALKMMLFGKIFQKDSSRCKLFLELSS
The experiment in a line: GloSensor cAMP accumulation, hTA1-transfected HEK293T cells.

Test [2] has as its target T1, human trace amine-associated receptor 1 (hTAAR1, hTA1). Briefly: cryo-EM structure of the hTA1-Gs complex.
For test [3] the target is unchanged. The experiment in a line: GloSensor cAMP accumulation, hTA1-transfected HEK293T cells, with pocket mutants.

Molecule `NCCc1ccc(O)cc1` [tyramine] gave an EC50 in test [1] of 6.38 ± 0.04 pEC50.

Turning to `Cc1c(F)cccc1[C@H]1COC(N)=N1` [Ro5263397], the EC50 in test [1] is 1.48 nM.

In the case of `CC[C@@H](C[C@H]1COC(N)=N1)c1ccccc1` [Ro5256390], in test [2], the EC50 was approximately 5 nM.

Regarding `CN1CC2c3ccccc3Oc3ccc(Cl)cc3C2C1` (stereo not shown) [asenapine], the EC50 in test [3] stood at 6.56 ± 0.01 pEC50.
